A value given as a limit tells only on which side of the number the result lay.

Experiment [1] relates to DU-145. The experiment can be described thus: Anticancer activity against human DU145 cells by MTT assay. It counts as functional, cell-based. On the technique in general: Formazan colour is commonly taken as a measure of viable cells.
Experiment [2] deals with DU-145. The experiment can be described thus: Anticancer activity against human DU145 cells assessed as growth inhibition at 100 uM by MTT assay. Format: functional.
Experiment [3] deals with A549. The experiment can be described thus: Anticancer activity against human A549 cells assessed as growth inhibition at 100 uM by MTT assay. Format: functional.
Experiment [4] relates to HT-29. As to the kind of experiment: Anticancer activity against human HT-29 cells assessed as growth inhibition at 100 uM by MTT assay. Format: functional.
The subject of experiment [5] is SK-MEL-2. As to the kind of experiment: Anticancer activity against human SK-MEL-2 cells by MTT assay. It counts as functional, cell-based.
Experiment [6] has as its system A549. The experiment can be described thus: Anticancer activity against human A549 cells by MTT assay. Format: functional, cell-based.
Experiment [7] relates to SK-OV-3. The experiment can be described thus: Anticancer activity against human SKOV3 cells by MTT assay. Format: functional, cell-based.
In experiment [8] the test system is HT-29. As to the kind of experiment: Anticancer activity against human HT-29 cells by MTT assay. Format: functional, cell-based.
In experiment [9] the test system is SK-MEL-2. As to the kind of experiment: Anticancer activity against human SK-MEL-2 cells assessed as growth inhibition at 100 uM by MTT assay. It counts as functional.
In experiment [10] the test system is SK-OV-3. As to the kind of experiment: Anticancer activity against human SKOV3 cells assessed as growth inhibition at 100 uM by MTT assay. Format: functional.
In experiment [11] the test system is SK-MEL-2. The experiment can be described thus: Anticancer activity against human SK-MEL-2 cells assessed as growth inhibition at 10 uM by MTT assay. It counts as functional.
In experiment [12] the test system is DU-145. The experiment can be described thus: Anticancer activity against human DU145 cells assessed as growth inhibition at 10 uM by MTT assay. Format: functional.
Experiment [13] relates to HT-29. As to the kind of experiment: Anticancer activity against human HT-29 cells assessed as growth inhibition at 10 uM by MTT assay. It counts as functional.
The next experiment deals with MCF7. The experiment can be described thus: Anticancer activity against human MCF7 cells by MTT assay. Format: functional, cell-based.

In general, IC50 refers to the concentration needed to halve the response being measured. A high value points to lower potency. Broadly, the inhibition is the change of the read-out against control, counted positive when it falls. Take `O=S(=O)(NCCc1c[nH]c2ccc(F)cc12)c1ccc(Br)cc1OC(F)(F)F`: the 50% inhibitory concentration (IC50) was 39.4 µM with DU-145 [1]; 45.8 µM in the experiment on SK-MEL-2 [5]; 55 µM in the experiment on A549 [6]; above 100 µM with SK-OV-3 [7]; 33.4 µM with HT-29 [8]. Further, the inhibition at 100 µM turned out to be 44.4% in the experiment on DU-145 [2]; 43.5% in the experiment with A549 [3]; 63.5% with HT-29 [4]; 34% in the experiment with SK-MEL-2 [9]; 22.5% in the experiment on SK-OV-3 [10].
For `Oc1ccc(C2=Nc3ccccc3S[C@H](c3ccccc3)C2)cc1`, the IC50 came to 30.6 µM with DU-145 [1]; 47.1 µM in the experiment on SK-MEL-2 [5]; 33.2 µM in the experiment on A549 [6]; 61.6 µM with SK-OV-3 [7]; 40.7 µM in the experiment with HT-29 [8]. In addition, the inhibition at 100 µM amounted to 59.9% in the experiment on DU-145 [2]; 55.8% with A549 [3]; 67.9% with HT-29 [4]; 57.1% with SK-MEL-2 [9]; 51.6% in the experiment with SK-OV-3 [10].
On to `CN(C)CCNc1nc(-c2ccc(C(C)(C)C)cc2)nc2ccccc12`, for which the IC50 is above 50 µM in the experiment on DU-145 [1] and 8.72 µM in the experiment with HT-29 [8]. In addition, the inhibition at 10 µM in the experiment with SK-MEL-2 [11] was found to be 91.5%; in the experiment on DU-145 [12], 86.5%; in the experiment on HT-29 [13], 89.8%. The inhibition at 100 µM with HT-29 [4] stood at 93.4%; in the experiment on SK-MEL-2 [9], 89.6%; in the experiment on SK-OV-3 [10], 92.3%.
In the case of `COc1cc(C2N(c3ccc(C)cc3)CCN2c2ccc(C)cc2)ccc1O`, the IC50 was 43.1 µM in the experiment on DU-145 [1]; 32.9 µM in the experiment on SK-MEL-2 [5]; 27.6 µM in the experiment with A549 [6]; above 100 µM with SK-OV-3 [7]; 27.6 µM with HT-29 [8]. Further, the inhibition at 100 µM is 40.7% in the experiment with DU-145 [2]; 51.9% in the experiment with A549 [3]; 64.8% in the experiment with HT-29 [4]; 58.3% with SK-MEL-2 [9]; 34.3% with SK-OV-3 [10].
As for `O=[N+]([O-])c1cccnc1Sc1ccccc1NS(=O)(=O)c1ccc(Cl)cc1Cl`, the IC50 is 53.9 µM in the experiment with DU-145 [1]; 42.3 µM in the experiment on SK-MEL-2 [5]; 26 µM with A549 [6]; 70 µM with SK-OV-3 [7]; 63.1 µM in the experiment with HT-29 [8]. The inhibition at 100 µM with DU-145 [2] stood at 54.5%; in the experiment with A549 [3] it was 47.9%; in the experiment on HT-29 [4], 44.6%; in the experiment with SK-MEL-2 [9] it was 40.1%; in the experiment with SK-OV-3 [10], 44%.
In the case of `COc1ccccc1N/N=C1/C(=O)N(C(N)=S)N=C1c1ccccc1`, the 50% inhibitory concentration (IC50) in the experiment with DU-145 [1] turned out to be 46.8 µM; in the experiment with SK-MEL-2 [5], 34.9 µM; in the experiment with A549 [6], 45.2 µM; with SK-OV-3 [7], 76 µM; in the experiment on HT-29 [8], 48.5 µM. Also, the inhibition at 100 µM in the experiment on DU-145 [2] was 48%; with A549 [3] it was 51.9%; with HT-29 [4], 38%; in the experiment with SK-MEL-2 [9] it was 61%; in the experiment with SK-OV-3 [10], 45.5%.
With `O[C@H]1CCN(c2nc(Nc3cccc4c3CCCC4)c3ccccc3n2)C1`, the IC50 was determined as 16.8 µM with DU-145 [1]; 15.9 µM in the experiment on SK-MEL-2 [5]; 12.9 µM in the experiment on A549 [6]; 16.8 µM in the experiment on SK-OV-3 [7]; 7.12 µM with HT-29 [8]. In addition, the inhibition at 100 µM is 88.7% in the experiment with DU-145 [2]; 88.8% in the experiment on A549 [3]; 86.1% in the experiment on HT-29 [4]; 79.5% in the experiment with SK-MEL-2 [9]; 89.5% with SK-OV-3 [10].
On to `COc1ccc(Nc2nc(NCc3ccccc3)c3ccccc3n2)cc1`, for which the IC50 in the experiment with DU-145 [1] was 21.3 µM; in the experiment on HT-29 [8], 13.4 µM. Also, the inhibition at 10 µM with SK-MEL-2 [11] is 81.2%; in the experiment with DU-145 [12] it was 52.2%; in the experiment with HT-29 [13], 80.7%. Also, the results for the inhibition at 100 µM in the experiment on HT-29 [4], with SK-MEL-2 [9] and in the experiment on SK-OV-3 [10] were 92.9%, 89.3% and 92.3%, respectively.
For `Fc1ccc(Nc2nc(NCc3ccccc3)c3ccccc3n2)cc1`, the concentration for half-maximal inhibition (IC50) came to 23.4 µM in the experiment on DU-145 [1] and 2.41 µM with HT-29 [8]. In addition, the inhibition at 10 µM is 69.9% in the experiment with SK-MEL-2 [11], 38.2% in the experiment with DU-145 [12] and 74.4% with HT-29 [13]. Moreover, the inhibition at 100 µM with HT-29 [4] was determined as 93.4%; in the experiment with SK-MEL-2 [9], 89.9%; in the experiment on SK-OV-3 [10], 91.3%.
On to `O=S(=O)(NCCC(c1ccccc1)c1ccccc1)c1ccc(Cl)cc1`, for which the IC50 with DU-145 [1] amounted to 26.1 µM; with SK-MEL-2 [5], 18.9 µM; in the experiment with A549 [6], 30.9 µM; with SK-OV-3 [7], 35 µM; with HT-29 [8] it was 18.8 µM. Also, the inhibition at 100 µM turned out to be 73.5% with DU-145 [2]; 65.7% in the experiment with A549 [3]; 87.5% with HT-29 [4]; 77.8% in the experiment on SK-MEL-2 [9]; 62% with SK-OV-3 [10].
Turning to `C[C@H](Nc1nc(N2CCNCC2)nc2ccccc12)c1ccccc1`, the IC50 in the experiment with DU-145 [1] was found to be 12.6 µM; with SK-MEL-2 [5], 5.14 µM; in the experiment on A549 [6], 13.3 µM; with SK-OV-3 [7], 14.6 µM; with HT-29 [8], 4.1 µM. The inhibition at 100 µM in the experiment on DU-145 [2] worked out at 87.2%; with A549 [3], 90.2%; in the experiment with HT-29 [4], 86.5%; in the experiment on SK-MEL-2 [9], 85.6%; in the experiment with SK-OV-3 [10], 86.6%.
On to `CCOc1ccc(Nc2nc(NCc3ccccc3)c3ccccc3n2)cc1`, for which the half-inhibitory concentration (IC50) in the experiment on DU-145 [1] came out at 19.2 µM; in the experiment on HT-29 [8] it was 16.5 µM. Moreover, the values for the inhibition at 10 µM in the experiment with SK-MEL-2 [11], in the experiment on DU-145 [12] and in the experiment with HT-29 [13] were 91.6%, 58% and 83.3%, respectively. The results for the inhibition at 100 µM in the experiment with HT-29 [4], with SK-MEL-2 [9] and in the experiment with SK-OV-3 [10] were 92.9%, 88% and 91.8%, respectively.
For `Oc1ccc(Nc2nc(NCc3ccco3)c3ccccc3n2)cc1`, the IC50 in the experiment with DU-145 [1] came out at 22.7 µM; in the experiment with HT-29 [8] it was 14 µM. Moreover, the inhibition at 10 µM with SK-MEL-2 [11] stood at 39%; in the experiment on DU-145 [12], 30.3%; with HT-29 [13], 67.6%. The figures for the inhibition at 100 µM in the experiment on HT-29 [4], with SK-MEL-2 [9] and in the experiment on SK-OV-3 [10] were 93.3%, 86.2% and 92.3%, respectively.
`Cc1cccc(Nc2nc(NCc3ccco3)c3ccccc3n2)c1`: the IC50 with DU-145 [1] came to 19.7 µM; with HT-29 [8] it was 10.1 µM. Moreover, the inhibition at 10 µM worked out at 77.6% in the experiment with SK-MEL-2 [11], 53.7% in the experiment with DU-145 [12] and 77.9% in the experiment with HT-29 [13]. In addition, the inhibition at 100 µM in the experiment on HT-29 [4] worked out at 93.6%; in the experiment with SK-MEL-2 [9], 78.7%; in the experiment on SK-OV-3 [10], 93.3%.
Take `COc1ccc(Nc2nc(NCc3ccco3)c3ccccc3n2)cc1`: the IC50 in the experiment with DU-145 [1] stood at 24.5 µM; with MCF7 it was 7.25 µM; in the experiment on HT-29 [8], 0.902 µM. Also, the values for the inhibition at 10 µM in the experiment with SK-MEL-2 [11], in the experiment on DU-145 [12] and in the experiment with HT-29 [13] were 22.8%, 28.7% and 64.2%, respectively. The inhibition at 100 µM was 90.9% with HT-29 [4], 89.3% in the experiment on SK-MEL-2 [9] and 92.5% with SK-OV-3 [10].
Consider `O=S(=O)(Nc1ccccc1Oc1ccc(Cl)cc1Cl)c1ccccc1`, for which the IC50 with DU-145 [1] was 44 µM; in the experiment on SK-MEL-2 [5], 44.2 µM; in the experiment with A549 [6] it was 35.5 µM; with SK-OV-3 [7], above 100 µM; in the experiment on HT-29 [8] it was 65.1 µM. For the same compound, the inhibition at 100 µM in the experiment on DU-145 [2] was 52.6%; in the experiment with A549 [3], 55%; in the experiment with HT-29 [4], 51.1%; with SK-MEL-2 [9], 43.9%; in the experiment with SK-OV-3 [10], 40.1%.
For the compound `Oc1cccc(Nc2nc(NCc3ccccc3)c3ccccc3n2)c1`, the 50% inhibitory concentration (IC50) in the experiment on DU-145 [1] turned out to be 22.6 µM; with HT-29 [8] it was 15.8 µM. For the same compound, the inhibition at 10 µM is 46.7% in the experiment with SK-MEL-2 [11], 35% with DU-145 [12] and 61.3% with HT-29 [13]. The inhibition at 100 µM in the experiment on HT-29 [4] is 81.9%; in the experiment with SK-MEL-2 [9], 78.9%; with SK-OV-3 [10] it was 85.5%.
Take `CCC(C)(C)c1ccc(O)c(NS(=O)(=O)c2ccccc2OC(F)(F)F)c1`: the half-maximal inhibitory concentration (IC50) was above 100 µM in the experiment with DU-145 [1]; 53.6 µM in the experiment with SK-MEL-2 [5]; 38.8 µM in the experiment with A549 [6]; 38.8 µM in the experiment with SK-OV-3 [7]; 24.1 µM in the experiment on HT-29 [8]. Besides, the inhibition at 100 µM is 60.1% in the experiment with DU-145 [2]; 50.9% in the experiment with A549 [3]; 37.5% in the experiment on HT-29 [4]; 52.4% in the experiment with SK-MEL-2 [9]; 46.4% in the experiment with SK-OV-3 [10].
